These results are taken from paper PMC8591608, “DNDI-6148: A Novel Benzoxaborole Preclinical Candidate for the Treatment of Visceral Leishmaniasis” (Journal of Medicinal Chemistry, 2021).

For series [1], the system named is L. donovani. Kind of series: L. donovani mouse model of VL. In kind it is in vivo. The method, then: Female BALB/c mice were infected with 2 × 10^7L. donovani amastigotes/0.2 mL i.v. harvested from the spleen of an infected donor RAG1B6 mouse (LSHTM). After 7 days, the mice were treated with miltefosine or DNDI-6148 for 5 consecutive days. Five days after the final dose, mice were humanely killed, liver and spleens were dissected and weighed, and impression smears were made for the calculation of parasite burden (Stauber equation).[25]

Series [2] relates to L. donovani. Kind of series: L. donovani hamster model of VL. In kind it is in vivo. The method, then:
(§1) L. infantum (MHOM/MA/67/ITMAP263) and L. donovani (MHOM/ET/67/L82) were maintained in the golden (Syrian) hamster (Mesocricetus auratus). Ex vivo amastigotes were collected from the spleen of an infected donor hamster using two centrifugation purification steps: 230g for 10 min, keeping the supernatant layer, and 4100g for 30 min, keeping the pellet. The spleen parasite burden was assessed using the Stauber technique.[25] For in vitro assays, the inoculum was prepared in RPMI-1640 medium, supplemented with 200 mM L-glutamine, 16.5 mM NaHCO3, and 5% inactivated fetal calf serum. For the in vivo model, an infection inoculum containing 2 × 10^7 amastigotes/100 μL was prepared in phosphate-buffered saline (PBS).
Female golden hamsters for the in vivo model of visceral leishmaniasis were purchased from Janvier, France (body weight 80–100 g). This study using laboratory rodents was carried out in strict accordance with all mandatory guidelines (EU directives, including the Revised Directive 2010/63/EU on the protection of Animals used for Scientific Purposes that came into force on 01/01/2013, and the declaration of Helsinki in its latest version) and was approved by the ethical committee of the University of Antwerp, Belgium (UA-ECD 2011-74). Female golden hamsters for the pharmacokinetic study were purchased from Vital River, Beijing, China. This study was conducted following institutional review and in accordance with institutional and national guidelines at WuXi AppTec (the Institutional Animal Care and Use Committee (IACUC)). Balb/c mice for the in vivo model of visceral leishmaniasis (LSHTM) were purchased from Charles River, U.K., and related studies were conducted under license PPL 70/8427 from the U.K. Home Office.
Female golden hamsters were randomly allocated to experimental groups of six animals each, based on body weight. At the start of the experiment (Day 0), each animal was infected with L. infantum or L. donovani inoculum, delivered by intracardial injection. Six hamsters were assigned to the vehicle-treated, infected control group. Six hamsters were assigned per group (1 group/compound) for the evaluation of compound and miltefosine. At Day 21 postinfection (21 dpi), all animals in each group were dosed orally for five (or ten) consecutive days (21–25 dpi): compound was dosed at 25–50 mg/kg b.i.d.; miltefosine was dosed at 40 mg/kg q.d. At Day 35 (10 days after the final oral dose), all animals were euthanized and autopsies were conducted. The study evaluated the following parameters. • 1. Adverse effects: all animals were observed daily for the occurrence/presence of adverse effects. • 2. Body weight: all animals were weighed twice per week to monitor general health. • 3. Parasite burden: amastigote burdens in each target organ (liver, spleen, and bone marrow) were determined at Day 35. The organs of individual animals were weighed (except for bone marrow). Impression smears were stained with Giemsa for microscopic examination of the total amastigote burden, defined as the mean number of amastigotes per cell multiplied by the number of cells counted (minimum 500 nuclei); the results were expressed as a percentage reduction in amastigote burden compared to vehicle-treated, infected control animals.

Series [3] is described as follows: Liver microsome stability, hamster. In kind it is in vitro ADME. The following applies: golden (Syrian), hamster liver microsomes, pH 7.4, Table 5, read-out: HamLM Clint. On the procedure: Tests were performed by WuXi AppTec, China. Test compounds (at 1 μM) or positive controls (testosterone, propafenone, and diclofenac) were incubated at 37 °C with liver microsomes from Balb/c mouse, golden (Syrian) hamster, Sprague-Dawley rat, Beagle dog, or human in the presence of a NADPH regenerating system and phosphate buffer (100 mM, pH 7.4) at 0.4 or 0.8 mg/mL microsomal protein. The samples were removed at time intervals from 0 to 60, 90, or 120 min and immediately mixed with cold methanol supplemented or not with acid (3% formic acid) and centrifuged prior to analysis by LC-MS/MS using tolbutamide or propranolol as internal standards.

A further series is described as follows: MRC5 cytotoxicity assay. In kind it is cell-based. As to conditions: human, MRC5SV2 cells (human embryonic lung fibroblasts); Table 5; geometric mean of at least two independent tests. A digest of the protocol: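 PMM (harvested 2 days after 2% potato starch peritoneal stimulation) or MRC5SV2 human lung fibroblasts at 3 × 10^4 cells/mL were exposed to compound for three days at 37 °C, 5% CO2. Viability was read by resazurin fluorescence (λex 550, λem 590 nm) after 4 h, as % growth reduction vs untreated controls.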

Series [4] has as its system L. donovani. Kind of series: Intramacrophage L. donovani assay. In kind it is cell-based. As to conditions: Leishmania donovani. On the procedure: as §1
The assay was performed in sterile 96-well microtiter plates, each well containing 10 μL of the compound dilution and 190 μL of the PMM/amastigote inoculum (3 × 10^4 cells/4.5 × 10^5 parasites per well). Parasite multiplication was compared to untreated infected controls (100% growth) and uninfected controls (0% growth). After five-day incubation, total parasite burdens were microscopically assessed after staining the cells with a 10% Giemsa solution. The results were expressed as a percentage reduction in parasite burden compared to untreated control wells. EC50 values were determined using an extended dose range (2-fold compound dilutions, 8-point concentration curve). Miltefosine was used as the reference drug.[26] For selected compounds, this assay format was also run using the L. donovani inoculum.

A further series concerns L. infantum. Kind of series: Intramacrophage L. infantum assay. The format is cell-based. The following applies: Leishmania infantum. A digest of the protocol: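 Ex vivo splenic amastigotes from infected hamsters used to infect primary macrophages (3 × 10^4 cells/4.5 × 10^5 parasites per well) in RPMI-1640 with 5% inactivated FCS. After 5 days' exposure, Giemsa-stained burdens counted microscopically versus untreated infected (100%) and uninfected (0%) controls; EC50 from 8-point 2-fold dilutions.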

The mark [5] stands for this setting: Table 5, geometric mean of at least two independent tests, read-out: intramacrophage L. infantum amastigote EC50.

SMILES strings stand for the structures. Where two headings read alike, the source gives them in different places.

In the case of `Cc1c(C(=O)Nc2ccc3c(c2)B(O)OC3)nnn1-c1ccccn1` [Compound 23, N-(1-Hydroxy-1,3-dihydrobenzo[c][1,2]oxaborol-6-yl)-5-methyl-1-(pyridin-2-yl)-1H-1,2,3-triazole-4-carboxamide], the “reduction in liver parasite burden following 5 days of p.o. dosing BID, L. donovani” value (shortened to “reduction … of p.o. dosing BID, L. donovani”) in the series with L. donovani [1] (25 mg/kg BID) was determined as 97.1%. For the same compound, the “reduction … of p.o. dosing BID, L. donovani” value in the series with L. donovani [1] (50 mg/kg BID) is listed as 99.7%. In addition, in the series with L. donovani [2] (25 mg/kg BID for 10 days), the “reduction in parasite burden, bone marrow, 10 days” value is 99.6%; the “reduction in parasite burden, liver, 10 days” value stood at 99.9%; the “reduction in parasite burden, spleen, 10 days” value is given as 99.8%. For the same compound, in the series on L. donovani [2] (50 mg/kg BID for 5 days), the “reduction in parasite burden, bone marrow, 5 days” value was 83.4%; the “reduction in parasite burden, liver, 5 days” value came out at 99.3%; the “reduction in parasite burden, spleen, 5 days” value is 98.6%. Also, the microsomal CLint at 1 μM in series [3] was less than 11.9 µL/min/mg. This compound also registered a CC50 at 3 days in “MRC5 cytotoxicity assay” of more than 64 µM. Moreover, the midpoint of the response with L. donovani [4] (Table 2, geometric mean of at least three independent assays), the EC50, lay at 1.4 µM. Moreover, in the series with L. infantum (Table 2, geometric mean of at least three independent assays, read-out: intramacrophage L. infantum EC50), the concentration for a half-maximal effect (EC50) was determined as 1.8 µM. Besides, the EC50 in the series with L. infantum (setting [5]) was 1.8 µM.

Turning to `Cc1c(-c2ccccn2)coc1C(=O)Nc1ccc2c(c1)B(O)OC2` [Compound 28, N-(1-Hydroxy-1,3-dihydrobenzo[c][1,2]oxaborol-6-yl)-3-methyl-4-(pyridin-2-yl)furan-2-carboxamide], the “reduction … of p.o. dosing BID, L. donovani” value with L. donovani [1] (25 mg/kg BID) is reported as 97.5%; with L. donovani [1] (50 mg/kg BID) it was 99.5%. The “reduction in parasite burden, bone marrow, 5 days” value is on record as 94.5% in the series with L. donovani [2] (25 mg/kg BID for 5 days) and 100% in the series with L. donovani [2] (50 mg/kg BID for 5 days). Also, the results for the “reduction in parasite burden, liver, 5 days” value with L. donovani [2] (25 mg/kg BID for 5 days) and with L. donovani [2] (50 mg/kg BID for 5 days) were 95.9% and 99.9%, respectively. The “reduction in parasite burden, spleen, 5 days” value with L. donovani [2] (25 mg/kg BID for 5 days) is given as 95.9%; in the series on L. donovani [2] (50 mg/kg BID for 5 days), 100%. For the same compound, the microsomal CLint at 2 h, 1 µM in series [3] was 40 µL/min/mg. Besides, half-maximal cytotoxicity in “MRC5 cytotoxicity assay” (CC50 at 72 h) was put at 18 µM. The EC50 is 0.4 µM in the series on L. donovani [4] (Table 6, geometric mean of at least two independent tests) and 0.5 µM in the series with L. infantum (setting [5]).
